Laboratory results reported in US10633389B2, “CARM1 inhibitors and uses thereof” (Epizyme, Inc., priority 2013, dated 2020).
pIC50: −log10 of the molar value.

system: asymmetric di-methyl PABP1 in RKO cells; test: RKO methylation assay, In Cell Western (ICW) for asymmetric di-methyl PABP1; assay type: cell-based; conditions: Homo sapiens, RKO, Cellular potencies, ICW PABP1me2a
How it was run: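 RKO cells treated with compound for 48 h at 37 °C, then fixed, permeabilized and immunostained for asymmetric di-methyl PABP1, with DRAQ5 as DNA stain. Infrared 700/800 nm signal ratio normalized to DMSO and 20 μM reference-compound controls; IC50 from triplicate wells.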

SMILES | pIC50
CNC[C@@H](O)COc1ccc(Cl)c(-c2nc(-c3c(C)noc3C)c(F)c(N3CC4(CCOCC4)C3)n2)c1 [Example 261-3] | > 5.30
CNCC(O)COc1cccc(-c2nc(OCC3CCN(C(C)=O)CC3)c(C)c(-c3c(C)noc3C)n2)c1 (stereo not shown) [Example 287-1a] | > 5.30
CNCC(O)COc1cccc(-c2nc(-c3cnc4ncnn4c3)cc(N(C)C3CCOCC3)n2)c1 (stereo not shown) [Example 536-1a] | 5.00 to 5.30
CNCC(O)COc1cccc(-c2nc(N[C@@H]3CCOC3)c(C)c(-c3cncc(C(=O)OC)c3)n2)c1 (stereo partly shown) [Example 340-1a] | 4.70 to 5.00
CNC[C@H](O)COc1ccc(Cl)c(-c2nc(NC[C@H]3COCCN3C(=O)OC)c(C)c(-c3c(C)noc3C)n2)c1 [Example 58-3] | > 5.30
CNCC(O)COc1cccc(-c2nc(-c3c(C)noc3C)cc(N3CCC4(CC3)NC(=O)NC4=O)n2)c1 (stereo not shown) [Example 42-1a] | 4.70 to 5.00
CNCC(O)COc1cccc(-c2nc(N[C@@H]3CCOC3)c(C)c(N3CCOCC3)n2)c1 (stereo partly shown) [Example 3-1] | 5.00 to 5.30
CNC[C@H](O)COc1ccc(F)c(-c2nc(-c3c(C)noc3C)c(C)c(N3CCC4(CC3)CN(C(=O)OC)C4)n2)c1 [Example 84-3] | > 5.30
CNC[C@H](O)COc1ccc(Cl)c(-c2nc(-c3c(C)noc3C)c(C)c(N3Cc4ccncc4C3)n2)c1 [Example 90-3] | > 5.30
CNCC(O)COc1cccc(-c2nc(NC3(C)CCOCC3)c(F)c(-c3c(C)noc3C)n2)c1 (stereo not shown) [Example 159-1a] | 4.70 to 5.00
CNCC(O)COc1cccc(-c2nc(-c3c(C)noc3C)c(C)c(N3CCN(C(=O)OCCOC)CC3)n2)c1 (stereo not shown) [Example 134-1a] | > 5.30
CNC[C@@H](O)COc1ccc(Cl)c(-c2nc(-c3c(C)noc3C)c(C)c(N3Cc4cnc(C(F)(F)F)nc4C3)n2)c1 [Example 263-3] | > 5.30
CCS(=O)(=O)N1CCC(Nc2nc(-c3cccc(OCC(O)CNC)c3)nc(-c3c(C)noc3C)c2C)CC1 (stereo not shown) [Example 168-1a] | > 5.30
CCOC(=O)N1CCC[C@H]1CCNc1nc(-c2cc(OC[C@H](O)CNC)ccc2Cl)nc(-c2c(C)noc2C)c1C [Example 137-3] | > 5.30
CNCC(O)COc1cccc(-c2nc(NC3CC(F)C3)c(C)c(-c3c(C)noc3C)n2)c1 (stereo not shown) [Example 3-3] | > 5.30
CNCC(O)COc1cccc(-c2nc(-c3c(C)noc3C)cc(N3CCN(C4CCOCC4)CC3)n2)c1 (stereo not shown) [Example 166-1a] | > 5.30
CNC[C@@H](O)COc1ccc(Cl)c(-c2nc(-c3c(C)noc3C)cc(N3Cc4nccnc4C3)n2)c1 [Example 251-3] | > 5.30
CNCC(O)COc1cccc(-c2nc(-c3c(C)noc3C)cc(N3CCN(CC(F)F)[C@H](C)C3)n2)c1 (stereo partly shown) [Example 174-1a] | > 5.30
CNCC(O)COc1cccc(-c2nc(N[C@@H]3CCOC3)c(C)c(N3CC[C@H](N(C)C)C3)n2)c1 (stereo partly shown) [Example 368-1a] | > 5.30
CCOC(=O)N1CCOC[C@H]1CNc1nc(-c2cc(OC[C@H](O)CNC)ccc2F)nc(-c2c(C)noc2C)c1C [Example 60-3] | > 5.30
CNCC(O)COc1cccc(-c2nc(-c3ccncc3)c(C)c(N(C)[C@@H]3CCOC3)n2)c1 (stereo partly shown) [Example 339-1a] | 4.70 to 5.00
CNC[C@H](O)COc1ccc(Cl)c(-c2nc(-c3c(C)noc3C)c(C)c(N3Cc4cccnc4C3)n2)c1 [Example 92-3] | > 5.30
CNCC(O)COc1cccc(-c2nc(-c3c(C)noc3C)c(C)c(N3CCO[C@@H](CN(C)C(=O)OC)C3)n2)c1 (stereo partly shown) [Example 149-1a] | > 5.30

SMILES | pIC50
CNC[C@@H](O)COc1ccc(F)c(-c2nc(-c3c(C)noc3C)c(C)c(N3Cc4cc(Cl)cnc4C3)n2)c1 [Example 185-3] | > 5.30
CNCC(O)COc1cccc(-c2nc(-c3c(C)noc3C)c(C)c(N3CCC4(CC3)CN(C(=O)N(C)C)C4)n2)c1 (stereo not shown) [Example 252-1a] | > 5.30
CNCC(O)COc1cccc(-c2nc(-c3ncc(C)n3C)cc(N(C)C3CCOCC3)n2)c1 (stereo not shown) [Example 491-1a] | > 5.30
CNCC(O)COc1cccc(-c2nc(N[C@@H]3CCOC3)c(C)c(N3CCN(CC(F)F)[C@H](C)C3)n2)c1 (stereo partly shown) [Example 471-1a] | > 5.30
CNC[C@@H](O)COc1ccc(Cl)c(-c2nc(-c3c(C)noc3C)c(C)c(N3Cc4cn[nH]c4C3)n2)c1 [Example 231-3] | > 5.30
CNCC(O)COc1cccc(-c2nc(NC3CCOCC3)cc(-c3c(C)noc3C)n2)c1 (stereo not shown) [Example 33-1] | > 5.30
CNCC(O)COc1cccc(-c2nc(-c3ccncc3)cc(N(C)C3CCNCC3)n2)c1 (stereo not shown) [Example 669-1a] | ≤ 4.70
CNC[C@@H](O)COc1ccc(Cl)c(-c2nc(N[C@H]3CCN(C(=O)OC)[C@@H](C)C3)c(C)c(-c3c(C)noc3C)n2)c1 [Example 169-3] | > 5.30
CNCC(O)COc1cccc(-c2nc(NCC3CCN(CC(F)F)CC3)c(C)c(-c3c(C)noc3C)n2)c1 (stereo not shown) [Example 205-1a] | > 5.30
CNC[C@@H](O)COc1ccc(Cl)c(-c2nc(N[C@H]3CCN(C)C[C@H]3F)c(Cl)c(-c3c(C)noc3C)n2)c1 [Example 208-3] | > 5.30
CNC[C@@H](O)COc1ccc(Cl)c(-c2nc(N[C@@H]3CCN(C)C[C@@H]3F)c(Cl)c(-c3c(C)noc3C)n2)c1 [Example 210-3] | > 5.30
CNCC(O)COc1cc(Cl)cc(-c2nc(-c3cnc4ccccn34)c(C)c(N(C)C3CCOCC3)n2)c1 (stereo not shown) [Example 561-1a] | 4.70 to 5.00
CNC[C@H](O)COc1ccc(F)c(-c2nc(-c3c(C)noc3C)c(C)c(N3CCC4(CCN(C(=O)OC)C4)C3)n2)c1 (stereo partly shown) [Example 106-3] | > 5.30
CNCC(O)COc1cc(N)cc(-c2nc(NC3CCOCC3)c(C)c(-c3c(C)noc3C)n2)c1 (stereo not shown) [Example 74-1a] | 5.00 to 5.30
CCOC(=O)N1CCCC[C@@H]1CNc1nc(-c2cc(OC[C@H](O)CNC)ccc2Cl)nc(-c2c(C)noc2C)c1Cl [Example 153-3] | > 5.30
CNCC(O)COc1cccc(-c2nc(N[C@@H]3CCOC3)c(C)c(-n3nc(C)cc3C)n2)c1 (stereo partly shown) [Example 382-1a] | 4.70 to 5.00
CNC[C@@H](O)COc1ccc(Cl)c(-c2nc(N[C@H]3CCO[C@H](C)C3)c(Cl)c(-c3c(C)noc3C)n2)c1 [Example 197-3] | > 5.30
CNC[C@@H](O)COc1ccc(Cl)c(-c2nc(-c3c(C)noc3C)c(C)c(N3CC4(CCCCO4)C3)n2)c1 [Example 290-3] | > 5.30
CNC[C@@H](O)COc1ccc(Cl)c(-c2nc(-c3c(C)noc3C)c(C)c(N3CC4(CCN(C(=O)OC(C)C)C4)C3)n2)c1 [Example 286-3] | > 5.30
CNCC(O)COc1cccc(-c2nc(NC3CCOC3)c(C)c(N3CCN(C(C)=O)C[C@H]3C)n2)c1 (stereo partly shown) [Example 421-1a] | 5.00 to 5.30
CNCC(O)COc1cccc(-c2nc(-c3cn(C)c(C)n3)cc(N(C)C3CCOCC3)n2)c1 (stereo not shown) [Example 529-1a] | 5.00 to 5.30
CNCC(O)COc1cccc(-c2nc(-c3c(C)noc3C)c(C)c(N3CCC4(CC3)CN(C3CC3)C4)n2)c1 (stereo not shown) [Example 294-1a] | > 5.30
CNCC(O)COc1ccc(Cl)c(-c2nc(NC[C@H]3COCCN3C3COC3)c(C)c(-c3c(C)noc3C)n2)c1 (stereo partly shown) [Example 2-3] | > 5.30

SMILES | pIC50
CNCC(O)COc1ccc(Cl)c(-c2nc(NC3CCN(C(=O)OC)CC3)c(C)c(-c3c(C)noc3C)n2)c1 (stereo not shown) [Example 270-1a] | > 5.30
CNCC(O)COc1cccc(-c2nc(-c3c(C)noc3C)cc(N3CCN(CCF)[C@H](C)C3)n2)c1 (stereo partly shown) [Example 145-1a] | 5.00 to 5.30
CNCC(O)COc1cc(Cl)cc(-c2nc(NC3CCN(CC(F)F)CC3)c(C)c(-c3c(C)noc3C)n2)c1 (stereo not shown) [Example 21-3] | > 5.30
CNCC(O)COc1cccc(-c2nc(-c3c(C)noc3C)cc(N3C[C@@H]4C[C@H]3CN4C(=O)OC)n2)c1 (stereo partly shown) [Example 94-1a] | > 5.30
CNC[C@H](O)COc1ccc(Cl)c(-c2nc(-c3c(C)noc3C)c(C)c(N3CCC4(CC3)CN(C(=O)OC)C4)n2)c1 [Example 85-3] | > 5.30
CNCC(O)COc1cc(Cl)cc(-c2nc(Nc3cncnc3)cc(-c3c(C)noc3C)n2)c1 (stereo not shown) [Example 9-1a] | 5.00 to 5.30
CNCC(O)COc1cccc(-c2nc(NC3CCN(C4COC4)C3)c(C)c(-c3c(C)noc3C)n2)c1 (stereo not shown) [Example 240-1a] | > 5.30
CCN(CC)c1nc(-c2cccc(OCC(O)CNC)c2)nc(N2CCOCC2)c1C (stereo not shown) [Example 682-1a] | ≤ 4.70
CNCC(O)COc1cccc(-c2nc(-c3cnn(CC(C)C)c3)cc(N(C)CCC#N)n2)c1 (stereo not shown) [Example 41-1] | 4.70 to 5.00
CCS(=O)(=O)N1CCN(c2nc(-c3cccc(OCC(O)CNC)c3)nc(NC3CCOC3)c2C)CC1(C)C (stereo not shown) [Example 448-1a] | > 5.30
CNCC(O)COc1cccc(-c2nc(-c3ccc(C(F)(F)F)nc3)cc(N(C)C3CCOCC3)n2)c1 (stereo not shown) [Example 613-1a] | 4.70 to 5.00
CNC[C@@H](O)COc1ccc(Cl)c(-c2nc(-c3c(C)noc3C)c(C)c(N3Cc4cnn(CC(F)(F)F)c4C3)n2)c1 [Example 265-3] | > 5.30
CNC[C@@H](O)COc1cccc(-c2nc(NC3CCN(C(=O)OC)CC3)cc(-c3c(C)nnn3C)n2)c1 [Example 278-3] | 4.70 to 5.00
CNCC(O)COc1cccc(-c2nc(-c3c(C)noc3C)cc(N3CCN(CCOC)CC3)n2)c1 (stereo not shown) [Example 139-1a] | > 5.30
CNC[C@@H](O)COc1ccc(F)c(-c2nc(-c3c(C)noc3C)c(C)c(N3Cc4cc(OC)cnc4C3)n2)c1 [Example 244-3] | > 5.30
CNC[C@@H](O)COc1ccc(Cl)c(-c2nc(-c3c(C)noc3C)c(Cl)c(N3Cc4cccnc4C3)n2)c1 [Example 168-3] | > 5.30
CNCC(O)COc1cccc(-c2nc(N[C@@H]3CCOC3)c(C)c(N3CCN(C)[C@H](C)C3)n2)c1 (stereo partly shown) [Example 463-1a] | > 5.30
CNCC(O)COc1ccc(Cl)c(-c2nc(NCC3COCCO3)c(C)c(-c3c(C)noc3C)n2)c1 (stereo not shown) [Example 41-3] | > 5.30
CNCC(O)COc1cccc(-c2nc(N[C@@H]3CCOC3)c(C)c(N3CCn4ccnc4C3)n2)c1 (stereo partly shown) [Example 359-1a] | 4.70 to 5.00
CNCC(O)COc1cccc(-c2nc(NC)cc(-c3c(C)noc3C)n2)c1 (stereo not shown) [Example 27-1a] | 4.70 to 5.00
CNCC(O)COc1cccc(-c2nc(-c3c(C)noc3C)c(C)c(N3CC4(CN(C(=O)OC)C4)C3)n2)c1 (stereo not shown) [Example 299-1a] | > 5.30
